# US5514662A, “Use of amphotericin B derivatives as protease inhibitors” (priority 1991, dated 1996)
# How the values were obtained:
# kallicrein = assay: Activity of DABF-AmB on various proteases: kallicrein; type: biochemical; conditions: 1 μM, results not shown
# Procedure: (§1) DABF-AmB was tested, at a concentration of 1 μM, on various proteases (papain, chymotrypsin, kallicrein, leucocyte elastase, cathopsin D and recombinant protease p10) under conditions and in the presence of substrates appropriate for each of the proteases tested.
# cathopsin D = assay: Activity of DABF-AmB on various proteases: cathopsin D; type: biochemical; conditions: 1 μM
# Procedure: as §1
# gp120 = assay: Membrane expression of gp120 in HIV-1 infected Jurkat and CEM cells; type: cell-based; conditions: 10 μM continuous, both cell lines, 8th day
# Procedure: Membrane expression of CD4 and gp120 is measured by means of the monoclonal antibodies OKT4 (0,5 μg/ml), 110-4 (2 μg/ml) respectively, which are stained using a […].
# The fluorescence is measured by means of a FACSTAR cell counter (BECTON DICKINSON, MOUNTAIN VIEW, Calif.). The results are expressed as mean fluorescence intensity.
# The anti-gpl10 monoclonal antibody 110-4 (GENETIC SYSTEMS CORP., Seattle, Wash.) also recognizes gP120 at the surface of the T cells.
# Immunofluorescence analyses are carried out on the 8th day of the infection in order to verify whether the inhibition of HIV replication by DABF-AmB results in 10 a reduced membrane expression of viral antigens.
# AZT-resistant strains = assay: Infection of PBMCs by AZT-resistant HIV-1; type: cell-based; conditions: 10 μM, RT activity after 10 days
# Procedure: PBMCs were infected under the conditions described above in the general procedures, with various HIV-1 isolates derived from patients, or identified as resistant to AZT. The anti-viral effect of DABF-AmB was determined by measuring the RT activity in the supernatants after 10 days of culture.
# HIV (cellular viraemia) = assay: Cellular viraemia of AIDS patients' lymphocytes (p24 in supernatants); type: cell-based
# Procedure: Lymphocytes from AIDS patients (<200CD4) are isolated on a Ficoll gradient using heparinised blood. The cells are taken up in RPMI 1640 medium containing antibiotics, 10 U/ml of recombinant IL2 (Boeringher) and anti-interferon alpha serum (anti-IFNα, Sigma) plus 10% of foetal calf serum. The cells are cultured in 24-well plates in an amount of 5×10^5 cells per well for the first concentration and then subjected to 5 fold serial dilutions in the same medium. Half of the medium is replaced twice weekly. Every week, 3×10^5 fresh allogeneic PBMCs, derived from healthy donors, are added to the cultures. The cultures are kept for 28 days in the presence of varying concentrations of DABF-AmB. Vital production is measured weekly by assaying the protein p24 in the supernatants. Each culture and each assay are carried out in duplicate.
# The symbols (-) denote that the amount of p24 detected is at least 95% less than the values obtained in the untreated control cultures. […] The results obtained in the LOU patient indicates either a resistance of the virus to the product, or a too high initial viral content. These experiments made it possible to evaluate the IC50 for DABF-AmB at between 1 and 5 μM for the different viral isolates (IC50=Concentrationof the product inhibiting 50% of the p24 titer in the culture supernatants, for a patient cells dilution corresponding to a viral content equivalent to 10TCID50.
# HRV14 = assay: Cytopathogenic effect of HRV14 in HeLa-Ohio cells; type: cell-based
# Procedure: HeLa-Ohio cells cultured until they have become confluent, are infected with a suspension of HRV14 virus. The cytopathogenic effect of the virus is evaluated by staining the cells with a 0.5% solution of crystal violet and 20% of methanol; after rinsing the plates with water, the optical density is read at 550 nm.
# For the rest of the experiment, the cells are infected with a viral suspension with a titre such that 50% of the cells are killed after 3 days on control cells not receiving any treatment. 1 hour after the infection, the test product (AmB or DABF-AmB) is added at concentrations ranging from 0.03 to 100 μM. The percentage inhibition of the cytopathogenic effect is determined as follows:
# OD (treated infected cells)-OD (infected cells)!
# OD (healthy cells)-OD (infected cells)!
# The effect of the addition of DABF-AmB was tested at various times: preincubation of the cells with DABF-AmB before the viral infection; addition of DABF-AmB at the time of the infection; addition of DABF-AmB after the infection, during the period of viral proliferation.
smiles,measurement,setting,value
"C[C@@H]1[C@H](O)[C@@H](C)/C=C/C=C/C=C/C=C/C=C/C=C/C=C/[C@H](O[C@@H]2O[C@H](C)[C@@H](O)[C@H](NCC(=O)[C@@H](O)[C@@H]3OC(c4ccccc4)OC[C@H]3O)[C@@H]2O)C[C@@H]2O[C@](O)(C[C@@H](O)C[C@@H](O)[C@H](O)CC[C@@H](O)C[C@@H](O)CC(=O)O[C@H]1C)C[C@H](O)[C@H]2C(=O)O (stereo partly drawn) [DABF-AmB, 1-deoxy-1-amino-4,6-O-benzylidene-D-fructosyl-AmB]",inhibition of kallicrein,kallicrein,inhibits
same,inhibition of cathopsin D,cathopsin D,does not inhibit
same,membrane expression of gp120,gp120,substantially reduces
same,inhibition of infection of PBMC,AZT-resistant strains,this inhibition is also produced in the case of AZT-resistant strains
same,number of patients in which cellular viraemia is inhibited,HIV (cellular viraemia); 8 different patients,7 out of 8
same,IC50,"HIV (cellular viraemia); Human immunodeficiency virus 1, Lymphocyte, read-out: IC50 (concentration inhibiting 50% of the p24 titer in the culture supernatants)",1 to 5 µM
same,cellular viraemia (p24),"HIV (cellular viraemia); patient SAM + MS, day 0",- (the amount of p24 detected is at least 95% less than the values obtained in the untreated control cultures)
same,cellular viraemia (p24),"HIV (cellular viraemia); patient SAM + MS, day 14",- (the amount of p24 detected is at least 95% less than the values obtained in the untreated control cultures)
same,cellular viraemia (p24),"HIV (cellular viraemia); patient five + MS, day 0",- (the amount of p24 detected is at least 95% less than the values obtained in the untreated control cultures)
same,cellular viraemia (p24),"HIV (cellular viraemia); patient five + MS, day 7",- (the amount of p24 detected is at least 95% less than the values obtained in the untreated control cultures)
same,cellular viraemia (p24),"HIV (cellular viraemia); patient four + MS, day 0",- (the amount of p24 detected is at least 95% less than the values obtained in the untreated control cultures)
same,cellular viraemia (p24),"HIV (cellular viraemia); patient four + MS, day 7",- (the amount of p24 detected is at least 95% less than the values obtained in the untreated control cultures)
same,cellular viraemia (p24),"HIV (cellular viraemia); patient four + MS, day 14",- (the amount of p24 detected is at least 95% less than the values obtained in the untreated control cultures)
same,cellular viraemia (p24),"HIV (cellular viraemia); patient four + MS, day 21",- (the amount of p24 detected is at least 95% less than the values obtained in the untreated control cultures)
same,cellular viraemia (p24),"HIV (cellular viraemia); patient four + MS, day 28",- (the amount of p24 detected is at least 95% less than the values obtained in the untreated control cultures)
same,cellular viraemia (p24),"HIV (cellular viraemia); patient one + MS, day 0",- (the amount of p24 detected is at least 95% less than the values obtained in the untreated control cultures)
same,cellular viraemia (p24),"HIV (cellular viraemia); patient one + MS, day 7",- (the amount of p24 detected is at least 95% less than the values obtained in the untreated control cultures)
same,cellular viraemia (p24),"HIV (cellular viraemia); patient seven + MS, day 0",- (the amount of p24 detected is at least 95% less than the values obtained in the untreated control cultures)
same,cellular viraemia (p24),"HIV (cellular viraemia); patient seven + MS, day 14",- (the amount of p24 detected is at least 95% less than the values obtained in the untreated control cultures)
same,cellular viraemia (p24),"HIV (cellular viraemia); patient six + MS, day 0",- (the amount of p24 detected is at least 95% less than the values obtained in the untreated control cultures)
same,cellular viraemia (p24),"HIV (cellular viraemia); patient six + MS, day 14",- (the amount of p24 detected is at least 95% less than the values obtained in the untreated control cultures)
same,cellular viraemia (p24),"HIV (cellular viraemia); patient three + MS, day 0",- (the amount of p24 detected is at least 95% less than the values obtained in the untreated control cultures)
same,cellular viraemia (p24),"HIV (cellular viraemia); patient three + MS, day 7",- (the amount of p24 detected is at least 95% less than the values obtained in the untreated control cultures)
same,cellular viraemia (p24),"HIV (cellular viraemia); patient three + MS, day 14",- (the amount of p24 detected is at least 95% less than the values obtained in the untreated control cultures)
same,cellular viraemia (p24),"HIV (cellular viraemia); patient three + MS, day 21",- (the amount of p24 detected is at least 95% less than the values obtained in the untreated control cultures)
same,cellular viraemia (p24),"HIV (cellular viraemia); patient three + MS, day 28",- (the amount of p24 detected is at least 95% less than the values obtained in the untreated control cultures)
same,cellular viraemia (p24),"HIV (cellular viraemia); patient two + MS, day 0",- (the amount of p24 detected is at least 95% less than the values obtained in the untreated control cultures)
same,cellular viraemia (p24),"HIV (cellular viraemia); patient two + MS, day 7",- (the amount of p24 detected is at least 95% less than the values obtained in the untreated control cultures)
same,cellular viraemia (p24),"HIV (cellular viraemia); patient two + MS, day 14",- (the amount of p24 detected is at least 95% less than the values obtained in the untreated control cultures)
same,cellular viraemia (p24),"HIV (cellular viraemia); patient two + MS, day 21",- (the amount of p24 detected is at least 95% less than the values obtained in the untreated control cultures)
same,cellular viraemia (p24),"HIV (cellular viraemia); patient two + MS, day 28",- (the amount of p24 detected is at least 95% less than the values obtained in the untreated control cultures)
same,concentration from which cytopathogenic effects are completely inhibited,HRV14; added 1 hour after infection,≥ 10 µM
same,IC50,"HRV14; added 1 hour after infection, read-out: IC50 (50% inhibition of the cytopathogenic effect)",5 µM
same,stage of action on HRV14 by time of addition,"HRV14; addition before, at time of, or after infection",acts essentially during viral proliferation
